Literature values, collected in PMC4010828 (mBio, 2014).

Test system: sensitive E. coli cells

microcin C (MRTGNAN; C-terminal adenylate, aminopropyl phosphoramidate) [McC]
Concentration that inhibits the growth of sensitive E. coli cells: low micromolar concentrations
